One block for each substance: values may come before it.
How the values were obtained:
[1] = molecular target: T1, recombinant human VE-cadherin FC fusion protein (Homo sapiens, UniProt P33151); assay: ELISA: binding of FLAG-tagged peptide to coated VE-cadherin; conditions: VE-cadherin coated 8 nM/ml
T1 construct: purchased R&D Systems, Minneapolis
Source text: We have developed a modified ELISA working with the same principles described by others, but the purpose of the herein described ELISA is not to quantify fibrin degradation products, but to search for proteins, peptides or compounds which interfere with the binding of the Bbeta15-42 sequence and the VE-cadherin. […] Into this system one can introduce any other additional substance and measure if this substance inhibits VE-cadherin/Bbeta15-42 binding.
In detail, 96 well protein immobilizer plates (Exiqon, Vedbaek, DK) were coated with recombinant human VE-cadherin FC fusion protein (8 nM/ml; R&D Systems, Minneapolis) in PBS and were left overnight at 4° C. Plates were then washed and incubated with peptide Bβ15-42 ([…]) tagged with a FLAG-sequence (DYKDDDDK) at the C-terminus of the peptide or with a FLAG-tagged random peptide ([…]) at a concentration of 0-80 μMol/ml. After washing, bound FLAG-tagged peptide was detected by incubation with a peroxidase-labelled anti-FLAG antibody (Sigma, St. Louis, USA) and chromogenic substrate. Optical density was determined by an ELISA plate reader set at a wavelength of 450 nm. Data represent the mean of three independent experiments, each performed in triplicates.

[2] = system: Domestic male landrace pigs; assay: Hemorrhagic shock in domestic pigs; type: in vivo, pig
Method: Domestic male landrace pigs weighing 20-35 kg were fed a standard diet and received water ad libitum. All procedures were performed in concurrence with the AAALAC guidelines and according to the Guide for the Care of Laboratory Animals (Department of Health and Human Services, National Institutes of Health, Publication Nr. 86-23). Pigs were premedicated with azaperon (4 mg/kg). The ear vein was cannulated and the anesthetic propofol was applied. The animals were fully instrumented and equlibrated for 1 hr in order to recieve a stable baseline. Subsequently, the animals (n=16) were exsanguinated until a mean arterial pressure of 40 mm Hg was achieved. They were kept at this level constituting a hemorrhagic shock for 1 hr. After this time the lost blood volume was resubstituted with shed blood and salt solutions (cristalloids). In addition the animals received a bolus dose of the peptide Bβ15-42 (n=8) or a random sequence peptide (n=8) in a dose of […] each as a single intravenous bolus. During the ensuing reperfusion period over the duration of 5 hrs, Horrowitz index (measuring blood oxigenation), PEEP (positive end-expiratory pressure in mm Hg) and cardiac ejection volume were determined at various timepoints.
In the following tables the following timepoints were used:
• Timepoint 1: 1 hr before hemorrhagic shock • Timepoint 2: during hemorrhagic shock • Timepoint 3: 1 hr after the start of reperfusion • Timepoint 4: 3 hrs after the start of reperfusion • Timepoint 5: 5 hrs after the start of reperfusion

[3] = in vivo, ischemia/reperfusion; WO 02/48180; cited from earlier work
[4] = system: human umbilical vein endothelial cells (HUVEC); assay: Inhibition of the release of interleukin-6 from endothelial cells; type: cell-based; conditions: 4 hrs
Method: In addition we have identified a specific assay for the determination of the claimed activity of the peptides, which consists of measurement of the inhibition of the release of interleukin-6 from endothelial cells. […] This assay is therefore also part of the invention.
96-well cell culture plates were coated with 1% gelatine. Into each well, approx. 23,000 human umbilical vein endothelial cells (HUVEC) in 200 μl of medium were pipetted. The HUVECs were taken from passage 4 form a pool of four different donors. The medium used for dilution was standard medium with 10% FCS, ECGS in Iscove's modified Dulbecco medium (Petzelbauer et al., J Immunol. 151:5062-5072, 1993). Within approx. 18 hrs at 37° C. in an incubator, a confluent cell monolayer is formed. The supernatant was removed and replaced with medium containing either NDSK-II alone or NDSK-II plus peptide Bβ15Δ([…]).
The total final volume was 200 μl. After 4 hrs of incubation at 37° C. under 5% CO2, the cell culture supernatant was again removed and centrifuged for 10 min at 4° C. at 3000 U/min. The concentration of interleukin-6 (IL-6) was measured using a commercial assay (IL-6 Quantikine Immonuassay (R&D Sytems; Catalog#: D6050; Lot: 231361). Calibration was done according to the standard protocol supplied by the assay manufacturer with various dilutions of recombinant IL-6 and medium. Readings of the optical density were taken at a wavelength of 450 nm with a reference wavelength of 550 nm.

[5] = Timepoint 1: 1 hr before hemorrhagic shock (before dosing)
[6] = Timepoint 2: during hemorrhagic shock (before dosing)
[7] = Timepoint 3: 1 hr after the start of reperfusion, 2.4 mh/kg single intravenous bolus
[8] = Timepoint 4: 3 hrs after the start of reperfusion, 2.4 mh/kg single intravenous bolus
[9] = Timepoint 5: 5 hrs after the start of reperfusion, 2.4 mh/kg single intravenous bolus

T1 sequence (P33151 with tags, fused parts or gaps limits assumed): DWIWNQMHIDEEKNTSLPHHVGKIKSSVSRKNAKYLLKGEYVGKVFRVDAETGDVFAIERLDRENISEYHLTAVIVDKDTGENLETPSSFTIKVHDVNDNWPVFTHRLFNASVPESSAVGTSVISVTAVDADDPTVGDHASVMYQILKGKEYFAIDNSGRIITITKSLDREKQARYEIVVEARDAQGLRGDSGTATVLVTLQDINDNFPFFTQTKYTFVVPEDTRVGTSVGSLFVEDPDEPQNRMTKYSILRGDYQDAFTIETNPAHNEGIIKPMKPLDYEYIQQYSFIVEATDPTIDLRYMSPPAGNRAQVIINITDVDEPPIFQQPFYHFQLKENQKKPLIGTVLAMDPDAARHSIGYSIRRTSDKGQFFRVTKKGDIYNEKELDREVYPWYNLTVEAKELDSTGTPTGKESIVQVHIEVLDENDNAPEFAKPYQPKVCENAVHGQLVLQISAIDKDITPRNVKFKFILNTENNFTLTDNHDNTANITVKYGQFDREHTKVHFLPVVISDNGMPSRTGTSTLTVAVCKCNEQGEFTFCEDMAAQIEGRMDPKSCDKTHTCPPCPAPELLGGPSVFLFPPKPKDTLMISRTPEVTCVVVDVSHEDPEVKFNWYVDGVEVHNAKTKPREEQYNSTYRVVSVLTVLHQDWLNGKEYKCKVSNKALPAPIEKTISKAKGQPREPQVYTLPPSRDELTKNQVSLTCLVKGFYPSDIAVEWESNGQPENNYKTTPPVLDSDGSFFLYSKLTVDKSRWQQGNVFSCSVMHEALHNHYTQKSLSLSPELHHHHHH

binding to VE-cadherin, optical density (450 nm), mean ([1]; FLAG-tagged peptide 0.23 μM/ml): 0.01 | binding to VE-cadherin, optical density (450 nm), mean ([1]; FLAG-tagged peptide 0.7 μM/ml): 0.02 | binding to VE-cadherin, optical density (450 nm), mean ([1]; FLAG-tagged peptide 2.3 μM/ml): 0.08 | binding to VE-cadherin, optical density (450 nm), mean ([1]; FLAG-tagged peptide 7 μM/ml): 0.33 | binding to VE-cadherin, optical density (450 nm), mean ([1]; FLAG-tagged peptide 14 μM/ml): 0.92 | binding to VE-cadherin, optical density (450 nm), mean ([1]; FLAG-tagged peptide 21 μM/ml): 1.3 | binding to VE-cadherin, optical density (450 nm), mean ([1]; FLAG-tagged peptide 35 μM/ml): 1.5 | binding to VE-cadherin, optical density (450 nm), mean ([1]; FLAG-tagged peptide 46 μM/ml): 1.93 | binding to VE-cadherin, optical density (450 nm), mean ([1]; FLAG-tagged peptide 70 μM/ml): 2.1
Substance: 15-42 FLAG: peptide Bβ15-42 (GHRPLDKKREEAPSLRPAPPPISGGGYR) tagged with a FLAG-sequence (DYKDDDDK) at the C-terminus (GHRPLDKKREEAPSLRPAPPPISGGGYRDYKDDDDK)

Substance: GHRPLDKKREEAPSLRPAPPPISGGGYR [peptide Bβ15-42, peptide matching amino acids 15-42 of the Bβ chain of human fibrin]
EV (cardiac ejection volume) [2, 5]: 44 ± 2 mL | Horrowitz Index (blood oxigenation) [2, 5]: 465 +/− 20 | PEEP (positive end-expiratory pressure) [2, 5]: 4 +/− 0.1 mmHg | EV (cardiac ejection volume) [2, 6]: 6 ± 1 mL | Horrowitz Index (blood oxigenation) [2, 6]: 450 +/− 20 | PEEP (positive end-expiratory pressure) [2, 6]: 4 +/− 0.1 mmHg | EV (cardiac ejection volume) [2, 7]: 31 ± 4 mL | Horrowitz Index (blood oxigenation) [2, 7]: 420 +/− 10 | PEEP (positive end-expiratory pressure) [2, 7]: 4.1 +/− 0.2 mmHg | EV (cardiac ejection volume) [2, 8]: 32 ± 3 mL | Horrowitz Index (blood oxigenation) [2, 8]: 410 +/− 20 | PEEP (positive end-expiratory pressure) [2, 8]: 4.2 +/− 0.3 mmHg | EV (cardiac ejection volume) [2, 9]: 37 ± 4 mL | Horrowitz Index (blood oxigenation) [2, 9]: 420 +/− 30 | PEEP (positive end-expiratory pressure) [2, 9]: 4.3 +/− 0.2 mmHg | myocardial infarct size (in words) [3]: reduces myocardial infarct sizes | IL-6 concentration ([4]; 0.3 μg/ml NDSK-II + 10 μg/ml peptide): 15 ± 2 pg/mL | IL-6 concentration ([4]; 3 μg/ml NDSK-II + 10 μg/ml peptide): 12 ± 3(p < 0.05 cmpd with pg/ml | IL-6 concentration ([4]; 30 μg/ml NDSK-II + 10 μg/ml peptide): 13 ± 1(p < 0.05 cmpd with pg/ml
